The text below walks through data of patent US10611731B2, “5-methyl-6-phenyl-4,5-dihydro-2H-pyridazin-3-one derivative” (OTSUKA PHARMACEUTICAL CO., LTD., priority 2016, dated 2020).

Some results are limits rather than exact numbers.

This experiment has as its system human childhood brain tumor cell lines (PFSK-1). Description: Growth inhibitory activity against PFSK-1 cells (WST-8, Cell Counting Kit-8). In kind it is cell-based. To be noted: Homo sapiens, 72 h, 3 days incubation with test compound, WST-8 OD 450/630 nm, read-out: IC50 (concentration inhibiting 50% of the cell growth). The method, boiled down:
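Cells seeded in RPMI 1640 with 10% FBS and preincubated 24 h at 37 °C, 5% CO2, then exposed to compound for 3 days. IC50 (nM) from growth relative to untreated control.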
On the technique in general: Tetrazolium dyes change colour on reduction, which living cells bring about.

`Cc1c(OCC(F)(F)CO)ccc(C2=NNC(=O)CC2C)c1O` (stereo not drawn) [Example 115, 6-[4-(2,2-difluoro-3-hydroxypropoxy)-2-hydroxy-3-methylphenyl]-5-methyl-4,5-dihydro-2H-pyridazin-3-one]: the IC50 came to 5.9 nM.
As to `Cc1cc(C2=NNC(=O)C[C@H]2C)cc(Cl)c1OCCO` [Example 116, (5R)-(−)-6-[3-chloro-4-(2-hydroxyethoxy)-5-methylphenyl]-5-methyl-4,5-dihydro-2H-pyridazin-3-one], the IC50 stood at 4.3 nM.
Regarding `C[C@@H]1CC(=O)NN=C1c1cc(F)c(OCC(C)(C)O)c(F)c1` [Example 117, (5R)-(−)-6-[3,5-Difluoro-4-(2-hydroxy-2-methylpropoxy)phenyl]-5-methyl-4,5-dihydro-2H-pyridazin-3-one], the IC50 is 3 nM.
Regarding `C[C@@H]1CC(=O)NN=C1c1ccc(OCC(C)(C)O)c(Cl)c1F` [Example 118, (5R)-(−)-6-[3-chloro-2-fluoro-4-(2-hydroxy-2-methylpropoxy)phenyl]-5-methyl-4,5-dihydro-2H-pyridazin-3-one], the IC50 is less than 1 nM.
As for `C[C@@H]1CC(=O)NN=C1c1cc(F)c(OCC2(O)CC2)c(Cl)c1` [Example 119, (5R)-(−)-6-{3-chloro-5-fluoro-4-[(1-hydroxycyclopropyl)methoxy]phenyl}-5-methyl-4,5-dihydro-2H-pyridazin-3-one], the IC50 is 2.9 nM.
As for `Cc1c(OCC(F)(F)CO)ccc(C2=NNC(=O)C[C@H]2C)c1F` [Example 120, (5R)-(−)-6-[4-(2,2-difluoro-3-hydroxypropoxy)-2-fluoro-3-methylphenyl]-5-methyl-4,5-dihydro-2H-pyridazin-3-one], the IC50 came out at 2.4 nM.
The value for `C[C@@H]1CC(=O)NN=C1c1cc(F)c(OCCCO)c(F)c1` [Example 121, (5R)-(−)-6-[3,5-Difluoro-4-(3-hydroxypropoxy)phenyl]-5-methyl-4,5-dihydro-2H-pyridazin-3-one] was 3.8 nM.
In the case of `C[C@@H]1CC(=O)NN=C1c1ccc(OCC(C)(C)CO)c(Cl)c1F` [Example 122, (5R)-(−)-6-[3-Chloro-2-fluoro-4-(3-hydroxy-2,2-dimethylpropoxy)phenyl]-5-methyl-4,5-dihydro-2H-pyridazin-3-one], the IC50 came out at 4.1 nM.
Regarding `C[C@@H]1CC(=O)NN=C1c1ccc(OCC2(O)CC2)c(F)c1F` [Example 123, (5R)-(−)-6-[2,3-Difluoro-4-[(1-hydroxycyclopropyl)methoxy]phenyl]-5-methyl-4,5-dihydro-2H-pyridazin-3-one], the IC50 was 3.3 nM.
The same measure for `C[C@@H]1CC(=O)NN=C1c1ccc(OCC(C)(C)O)c(F)c1F` [Example 124, (5R)-(−)-6-[2,3-difluoro-4-(2-hydroxy-2-methylpropoxy)phenyl]-5-methyl-4,5-dihydro-2H-pyridazin-3-one]: 2.3 nM.
Turning to `Cc1cc(C2=NNC(=O)C[C@H]2C)cc(F)c1OCC(C)(C)CO` [Example 125, (5R)-(−)-6-[3-fluoro-4-(3-hydroxy-2,2-dimethylpropoxy)-5-methylphenyl]-5-methyl-4,5-dihydro-2H-pyridazin-3-one], the IC50 was 1.5 nM.
In the case of `C[C@@H]1CC(=O)NN=C1c1ccc(OCCO)c(Cl)c1F` [Example 126, (5R)-(−)-6-[3-Chloro-2-fluoro-4-(2-hydroxyethoxy)phenyl]-5-methyl-4,5-dihydro-2H-pyridazin-3-one], the IC50 was determined as 2.9 nM.
On to `C[C@@H]1CC(=O)NN=C1c1cc(Cl)c(OCC(C)(C)CO)c(Br)c1` [Example 127, (5R)-(−)-6-[3-bromo-5-chloro-4-(3-hydroxy-2,2-dimethylpropoxy)phenyl]-5-methyl-4,5-dihydro-2H-pyridazin-3-one], for which the IC50 is less than 1 nM.
As to `Cc1cc(C2=NNC(=O)CC2C)c(O)c(Cl)c1OCC(C)(C)O` (stereo not drawn) [Example 129, 6-[3-Chloro-2-hydroxy-4-(2-hydroxy-2-methylpropoxy)-5-methylphenyl]-5-methyl-4,5-dihydro-2H-pyridazin-3-one], the IC50 was 3.6 nM.
With `Cc1c(O)c(C2=NNC(=O)CC2C)cc(Cl)c1OCC(C)(C)O` (stereo not drawn) [Example 130, 6-[5-Chloro-2-hydroxy-4-(2-hydroxy-2-methylpropoxy)-3-methylphenyl]-5-methyl-4,5-dihydro-2H-pyridazin-3-one], the IC50 came out at 7 nM.
On to `CC1CC(=O)NN=C1c1cc(F)c(OCC(C)(C)O)c(Cl)c1F` (stereo not drawn) [Example 131, 6-[3-chloro-2,5-difluoro-4-(2-hydroxy-2-methylpropoxy)phenyl]-5-methyl-4,5-dihydro-2H-pyridazin-3-one], for which the IC50 is 1 nM.
Turning to `Cc1cc(C2=NNC(=O)CC2C)c(F)c(C)c1OCC(C)(C)O` (stereo not drawn) [Example 132, 6-[2-Fluoro-4-(2-hydroxy-2-methylpropoxy)-3,5-dimethylphenyl]-5-methyl-4,5-dihydro-2H-pyridazin-3-one], the IC50 is 3 nM.
As for `C=Cc1c(OCC(C)(C)O)ccc(C2=NNC(=O)CC2C)c1F` (stereo not drawn) [Example 133, 6-[2-Fluoro-4-(2-hydroxy-2-methylpropoxy)-3-vinylphenyl]-5-methyl-4,5-dihydro-2H-pyridazin-3-one], the IC50 was determined as 3.4 nM.
On to `CCc1c(OCC(C)(C)O)ccc(C2=NNC(=O)CC2C)c1F` (stereo not drawn) [Example 134, 6-[3-Ethyl-2-fluoro-4-(2-hydroxy-2-methylpropoxy)phenyl]-5-methyl-4,5-dihydro-2H-pyridazin-3-one], for which the IC50 stood at 7.1 nM.
For `C=Cc1c(OCCO)ccc(C2=NNC(=O)CC2C)c1F` (stereo not drawn) [Example 135, 6-[2-Fluoro-4-(2-hydroxyethoxy)-3-vinylphenyl]-5-methyl-4,5-dihydro-2H-pyridazin-3-one], the IC50 turned out to be 6.8 nM.
The value for `Cc1c(F)c(C2=NNC(=O)CC2C)cc(Cl)c1OCC(C)(C)CO` (stereo not drawn) [Example 136, 6-[5-Chloro-2-fluoro-4-(3-hydroxy-2,2-dimethylpropoxy)-3-methylphenyl]-5-methyl-4,5-dihydro-2H-pyridazin-3-one] was 5.2 nM; that for `Cc1cc(C2=NNC(=O)CC2C)c(F)c(Cl)c1OCC(C)(C)CO` (stereo not drawn) [Example 137, 6-[3-chloro-2-fluoro-4-(3-hydroxy-2,2-dimethylpropoxy)-5-methylphenyl]-5-methyl-4,5-dihydro-2H-pyridazin-3-one] was less than 1 nM.
On to `Cc1cc(C2=NNC(=O)CC2C)c(F)c(C)c1OCC(C)(C)CO` (stereo not drawn) [Example 138, 6-[2-Fluoro-4-(3-hydroxy-2,2-dimethylpropoxy)-3,5-dimethylphenyl]-5-methyl-4,5-dihydro-2H-pyridazin-3-one], for which the IC50 worked out at 3.9 nM.
For `CC1CC(=O)NN=C1c1cc(F)c(OCC(C)(C)CO)c(Cl)c1F` (stereo not drawn) [Example 139, 6-[3-Chloro-2,5-difluoro-4-(3-hydroxy-2,2-dimethylpropoxy)phenyl]-5-methyl-4,5-dihydro-2H-pyridazin-3-one], the IC50 was determined as 2.7 nM.
In the case of `CC1CC(=O)NN=C1c1cc(F)c(OCCCO)c(Cl)c1F` (stereo not drawn) [Example 140, 6-[3-chloro-2,5-difluoro-4-(3-hydroxypropoxy)phenyl]-5-methyl-4,5-dihydro-2H-pyridazin-3-one], the IC50 came to 2 nM.
The same measure for `Cc1cc(C2=NNC(=O)CC2C)c(F)c(C)c1OCCCO` (stereo not drawn) [Example 141, 6-[2-Fluoro-4-(3-hydroxypropoxy)-3,5-dimethylphenyl]-5-methyl-4,5-dihydro-2H-pyridazin-3-one]: 4.6 nM.
With `Cc1cc(C2=NNC(=O)CC2C)cc(Cl)c1OCC(C)CO` (stereo not drawn) [Example 142, 6-[3-chloro-4-(3-hydroxy-2-methylpropoxy)-5-methylphenyl]-5-methyl-4,5-dihydro-2H-pyridazin-3-one], the IC50 amounted to 1 nM.
For the molecule `Cc1cc(C2=NNC(=O)CC2C)cc(Cl)c1OCCC(C)O` (stereo not drawn) [Example 143, 6-[3-Chloro-4-(3-hydroxybutoxy)-5-methylphenyl]-5-methyl-4,5-dihydro-2H-pyridazin-3-one], the IC50 was found to be 6.9 nM.
Take `Cc1cc(C2=NNC(=O)CC2C)cc(Cl)c1OCC1(CO)CC1` (stereo not drawn) [Example 144, 6-{3-Chloro-4-[1-(hydroxymethyl)cyclopropylmethoxy]-5-methylphenyl}-5-methyl-4,5-dihydro-2H-pyridazin-3-one]: the IC50 was determined as 4.2 nM.
The value for `CC1CC(=O)NN=C1c1ccc(OCC2(CO)CC2)c(F)c1F` (stereo not drawn) [Example 145, 6-{2,3-Difluoro-4-[1-(hydroxymethyl)cyclopropylmethoxy]phenyl}-5-methyl-4,5-dihydro-2H-pyridazin-3-one] was 7.1 nM; that for `CC1CC(=O)NN=C1c1ccc(OCC(C)(C)CCO)c(Cl)c1O` (stereo not drawn) [Example 146, 6-[3-chloro-2-hydroxy-4-(4-hydroxy-2,2-dimethylbutoxy)phenyl]-5-methyl-4,5-dihydro-2H-pyridazin-3-one] was 6.8 nM; that for `Cc1c(F)c(C2=NNC(=O)CC2C)cc(Cl)c1OCC(C)O` (stereo not drawn) [Example 147, 6-[5-Chloro-2-fluoro-4-(2-hydroxypropoxy)-3-methylphenyl]-5-methyl-4,5-dihydro-2H-pyridazin-3-one] was 7.6 nM.
In the case of `Cc1cc(C2=NNC(=O)CC2C)c(F)c(Cl)c1OCC(C)O` (stereo not drawn) [Example 148, 6-[3-Chloro-2-fluoro-4-(2-hydroxypropoxy)-5-methylphenyl]-5-methyl-4,5-dihydro-2H-pyridazin-3-one], the IC50 is less than 1 nM.
Regarding `CC(O)COc1c(F)cc(C2=NNC(=O)CC2C)c(F)c1Cl` (stereo not drawn) [Example 149, 6-[3-Chloro-2,5-difluoro-4-(2-hydroxypropoxy)phenyl]-5-methyl-4,5-dihydro-2H-pyridazin-3-one], the IC50 is 3.6 nM.
As to `Cc1cc(C2=NNC(=O)CC2C)c(F)c(C)c1OC/C=C\CO` (stereo not drawn) [Example 150, 6-{2-Fluoro-4-[(Z)-4-hydroxy-2-butenyloxy]-3,5-dimethylphenyl}-5-methyl-4,5-dihydro-2H-pyridazin-3-one], the IC50 amounted to 3.7 nM.
The value for `Cc1cc(C2=NNC(=O)CC2C)c(F)c(Cl)c1OC/C=C\CO` (stereo not drawn) [Example 151, 6-{3-Chloro-2-fluoro-4-[(Z)-4-hydroxy-2-butenyloxy]-5-methylphenyl}-5-methyl-4,5-dihydro-2H-pyridazin-3-one] was 1.3 nM.
